Test results as given in publication PMC6225212, “Synthesis and Pharmacological Evaluation of Novel Silodosin-Based Arylsulfonamide Derivatives as α1A/α1D-Adrenergic Receptor Antagonist with Potential Uroselective Profile” (Molecules : A Journal of Synthetic Chemistry and Natural …, 2018).

Legend:
[1] = biological target: T1, α1B-ARs (Homo sapiens, UniProt P35368); assay: Intrinsic activity at α1B-ARs, aequorin calcium mobilization luminescence; assay type: cell-based; design: key to α1B Profile: ANT—antagonist; AGO—agonist; details: for IC50: antagonist mode, three independent experiments; for α1B Profile: functional profile
T1 sequence (P35368 1-520): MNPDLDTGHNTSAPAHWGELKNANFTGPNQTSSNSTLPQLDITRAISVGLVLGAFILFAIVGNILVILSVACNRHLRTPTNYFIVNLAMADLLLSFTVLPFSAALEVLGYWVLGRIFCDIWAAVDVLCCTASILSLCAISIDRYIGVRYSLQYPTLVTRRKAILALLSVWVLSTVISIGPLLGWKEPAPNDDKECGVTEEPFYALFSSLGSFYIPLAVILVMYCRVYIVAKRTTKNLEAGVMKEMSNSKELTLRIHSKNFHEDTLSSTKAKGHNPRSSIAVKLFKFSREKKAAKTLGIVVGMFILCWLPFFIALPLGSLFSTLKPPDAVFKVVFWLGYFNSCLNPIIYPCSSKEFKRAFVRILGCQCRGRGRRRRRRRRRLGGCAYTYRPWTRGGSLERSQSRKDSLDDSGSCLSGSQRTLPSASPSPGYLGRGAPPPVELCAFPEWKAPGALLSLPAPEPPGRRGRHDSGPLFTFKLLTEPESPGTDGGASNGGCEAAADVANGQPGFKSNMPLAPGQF
Experimental: The intrinsic activity at α1A-ARs of the selected compounds was assessed by fluorescence detection (Invitrogen, Thermo Fisher Scientific, Carlsbad, CA, USA) of β-lactamase reporter genes using a FRET-enabled substrate. The intrinsic activity at α1B-ARs and α1D-ARs was determined by luminescence detection (PerkinElmer, Zaventem, Belgium) of calcium mobilization using the recombinant-expressed jellyfish photoprotein (Aequorin).
Intrinsic activity assay to α1B- and α1D-ARs was performed according to the manufacturer of the ready-to-use cells with stable expression of the α1B-adrenoreceptors and α1D-adrenoreceptors, respectively (PerkinElmer, Zaventem, Belgium). For measurement, cells (frozen, ready to use) were thawed and resuspended in 10 mL of assay buffer containing 5 µM coelenterazine h. This cells suspension was put in a 10 mL Falcon tube, fixed onto a rotating heel, and incubated for overnight at rt in the dark (8 rpm; 45° angle). Cells were diluted with Assay Buffer to 5000 cells/20 µL. Agonistic ligands 2 × (50 µL/well), diluted in Assay Buffer, were prepared in ½ white polystyrene area plates, and the cell suspension was dispensed in 50 µL volume on the ligands using the injector. The light emitted was recorded for 20 s. Cells with antagonist were incubated for 15 min at room temperature. Thereafter, 50 µL of agonist (3 × EC80 final concentration) was injected into the mix of cells and antagonist and the light emitted was recorded for 20 s.

[2] = In vitro metabolic stability in rat-liver microsomes (RLM); assay type: in vitro ADME; details: for Major Metabolic Pathway: RLM; for microsomal CLint at 10 μM / half-life at 10 μM: male, rat, rat liver microsomes, pH 7.4, RLM 0.2 mg/mL, compound 10 μM, 37 °C; for half-life at 10 μM: read-out: t½
Experimental: In vitro biotransformation assays of selected compounds 9 and 10 were performed using rat-liver microsomes (RLM), potassium-phosphate buffer, NADPH-regenerating system (NADP, glucose-6-phosphate, glucose-6-phosphate dehydrogenase), and levallorphan as internal standard, according to the previously published procedure. Compound I and the drug tamsulosin were used as reference standard. UPLC/MS analysis (Waters Corporation, Milford, MA, USA) was performed to determine the quantity of the starting material left in solution. The in vitro half-time (t1/2) for test compounds was determined from the slope of the linear regression of ln % parent compound remaining versus incubation time. The calculated t1/2 was incorporated into the following equation to obtain intrinsic clearance: (Clint) = (volume of incubation [µL]/protein in the incubation [mg]) × 0.693/t1/2.
Metabolic stability of tested compound was analyzed using incubation systems, composed of: tested compounds (10 μM), RLMs (microsomes from rat male liver, pooled; 0.2 mg/mL; Sigma Aldrich), NADPH-regenerating system (NADP+, glucose-6-phosphate and glucose-6-phosphate dehydrogenase in 100mM potassium buffer, pH 7.4; all from Sigma Aldrich), and potassium buffer, pH 7.4. […] Firstly, all samples contained incubation mixture (without NADPH-regenerating system) were preincubated in a thermoblock at 37 °C for 10 min. Then reaction was initiated by the addition of NADPH-regenerating system. In control samples NADPH-regenerating system was replaced with potassium buffer. Probes were incubated in thermoblock for 15 and 30 min at 37 °C. After addition of internal standard (levallorphan, 10 μM), the biotransformation process was stopped by addition of perchloric acid (69–72%, by volume). Next, samples were centrifuged (Centrifuge 5427 R, Eppendorf, Hamburg, Germany) and supernatants were analyzed using UPLC/MS (Waters Corporation). All experiments were run in duplicates. Half-life time was evaluated using a nonlinear regression model using Graph Pad Prism software (Graph Pad Software, La Jolla, San Diego, CA, USA) and intrinsic clearance was calculated from the equation Clint = (volume of incubation [μL]/protein in the incubation [mg]) ×∙0.693/t1/2 [33].

[3] = biological target: T2, adrenergic β1-AR (Homo sapiens, UniProt P08588); assay: Off-target panel at Eurofins Cerep, β1; assay type: binding
T2 construct: Eurofins (Celle-Lévescault, France)
T2 sequence (P08588 whole entry): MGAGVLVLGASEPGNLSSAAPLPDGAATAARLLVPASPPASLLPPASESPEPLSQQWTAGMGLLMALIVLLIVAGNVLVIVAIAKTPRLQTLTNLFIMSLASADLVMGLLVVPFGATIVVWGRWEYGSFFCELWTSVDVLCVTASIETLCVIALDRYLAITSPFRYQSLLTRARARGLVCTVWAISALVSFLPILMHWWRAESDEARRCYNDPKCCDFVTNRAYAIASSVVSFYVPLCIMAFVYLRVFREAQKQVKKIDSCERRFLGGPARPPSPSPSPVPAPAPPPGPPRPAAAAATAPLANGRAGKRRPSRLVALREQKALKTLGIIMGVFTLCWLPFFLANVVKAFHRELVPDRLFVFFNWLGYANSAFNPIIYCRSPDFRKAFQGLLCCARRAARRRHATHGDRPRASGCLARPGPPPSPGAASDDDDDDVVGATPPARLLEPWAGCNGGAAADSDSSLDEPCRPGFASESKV
Experimental: (§1) Finally, the percentage of inhibition for selected compounds 9 and 10 for off-target histaminic H1R, muscarinic M1R, adrenergic β1-AR and potassium ion channel hERG were assessed at Eurofins (Celle-Lévescault, France) according to the procedure online at www.eurofins.com.

[4] = biological target: T3, hERG potassium channel (Homo sapiens, UniProt Q12809); assay: Off-target panel at Eurofins Cerep, hERG; assay type: binding; details: read-out: inhibition at hERG channels
T3 construct: Eurofins (Celle-Lévescault, France)
T3 sequence (Q12809 whole entry): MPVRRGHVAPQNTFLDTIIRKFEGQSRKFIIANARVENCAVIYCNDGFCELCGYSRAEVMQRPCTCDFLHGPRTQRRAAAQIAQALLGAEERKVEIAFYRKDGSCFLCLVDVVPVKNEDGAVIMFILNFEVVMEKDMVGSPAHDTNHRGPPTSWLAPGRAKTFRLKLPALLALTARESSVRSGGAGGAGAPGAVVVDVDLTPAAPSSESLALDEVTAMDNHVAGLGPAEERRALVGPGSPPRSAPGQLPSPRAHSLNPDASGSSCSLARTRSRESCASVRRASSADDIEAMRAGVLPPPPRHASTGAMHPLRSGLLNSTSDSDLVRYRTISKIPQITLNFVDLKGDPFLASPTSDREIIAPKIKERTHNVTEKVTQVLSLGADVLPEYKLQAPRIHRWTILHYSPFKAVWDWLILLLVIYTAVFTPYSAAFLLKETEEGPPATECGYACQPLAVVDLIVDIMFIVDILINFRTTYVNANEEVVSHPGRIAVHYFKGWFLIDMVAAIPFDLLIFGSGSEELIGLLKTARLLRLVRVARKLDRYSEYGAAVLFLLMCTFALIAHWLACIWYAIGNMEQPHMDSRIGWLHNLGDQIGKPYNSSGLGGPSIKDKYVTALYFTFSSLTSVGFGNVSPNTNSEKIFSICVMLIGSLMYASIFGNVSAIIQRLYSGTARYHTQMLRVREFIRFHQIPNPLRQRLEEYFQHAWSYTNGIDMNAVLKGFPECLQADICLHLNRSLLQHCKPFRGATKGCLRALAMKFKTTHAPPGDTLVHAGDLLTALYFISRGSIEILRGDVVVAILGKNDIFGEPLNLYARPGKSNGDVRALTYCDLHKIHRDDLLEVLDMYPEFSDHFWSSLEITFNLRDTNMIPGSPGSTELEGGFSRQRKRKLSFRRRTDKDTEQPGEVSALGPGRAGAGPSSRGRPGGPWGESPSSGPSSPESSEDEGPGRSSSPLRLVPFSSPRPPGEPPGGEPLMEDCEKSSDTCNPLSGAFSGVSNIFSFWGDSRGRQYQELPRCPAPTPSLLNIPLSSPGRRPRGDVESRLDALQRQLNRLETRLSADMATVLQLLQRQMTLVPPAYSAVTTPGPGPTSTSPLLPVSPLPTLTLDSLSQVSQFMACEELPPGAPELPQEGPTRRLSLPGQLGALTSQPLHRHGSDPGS
Experimental: as §1

| Compound | IC50 [1] [nM] | α1B Profile [1] | Major Metabolic Pathway [2] | microsomal CLint at 10 μM [2] [µL/min/mg] | half-life at 10 μM [2] [min] | inhibition at 1 µM [3] [%] | inhibition at 1 µM [4] [%] |
| --- | --- | --- | --- | --- | --- | --- | --- |
| O=S(=O)(NCC1CCN(CCOc2ccccc2OCC(F)(F)F)CC1)c1cc(Cl)ccc1F [Compound 10, 5-Chloro-2-fluoro-N-[(1-{2-[(2,2,2-trifluoroethoxy)phenoxy]ethyl}piperidin-4-yl)methyl]benzenesulfonamide] | 10.1 | ANT | N-dealkylation | 91.7 | 37.8 | < 50 | < 50 |
| CCOc1ccccc1OCCN[C@H](C)Cc1ccc(OC)c(S(N)(=O)=O)c1 [tamsulosin, reference compound] | 1.3 | ANT | N-dealkylation | 41 | 83 |  |  |
| O=S(=O)(NCC1CCN(CCOc2ccccc2OCC(F)(F)F)CC1)c1cccc(Cl)c1F [Compound 9, 3-Chloro-2-fluoro-N-[(1-{2-[(2,2,2-trifluoroethoxy)phenoxy]ethyl}piperidin-4-yl)methyl]benzenesulfonamide] | 3.9 | ANT | N-dealkylation | 67 | 51.5 | < 50 | < 50 |
